Target: T1, His6-MoxR (Riemerella anatipestifer, UniProt E4TDR4)
T1 construct: gene RA0C_2065
Details: 37 °C, 1 h; ATP or His6-MoxR concentration varied

T1 sequence (E4TDR4 entry or part of it): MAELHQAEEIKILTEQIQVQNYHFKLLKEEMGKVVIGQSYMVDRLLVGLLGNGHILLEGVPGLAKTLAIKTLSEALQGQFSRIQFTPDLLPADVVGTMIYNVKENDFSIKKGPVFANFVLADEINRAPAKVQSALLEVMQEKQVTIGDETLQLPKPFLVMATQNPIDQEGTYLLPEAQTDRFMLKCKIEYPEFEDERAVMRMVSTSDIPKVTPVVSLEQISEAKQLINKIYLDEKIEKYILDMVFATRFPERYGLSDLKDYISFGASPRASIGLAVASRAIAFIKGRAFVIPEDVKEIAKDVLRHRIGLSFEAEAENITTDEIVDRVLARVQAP

Compound: Nc1ncnc2c1ncn2[C@@H]1O[C@H](COP(=O)(O)OP(=O)(O)OP(=O)(O)O)[C@@H](O)[C@H]1O [ATP]
- phosphate release, molybdenum blue, absorbance at 660 nm: concentration of phosphate groups in each reaction system increased with higher amounts of His6-MoxR and ATP

Source: PMC11834572, “MoxR effects as an ATPase on anti-stress and pathogenicity of Riemerella anatipestifer” (Veterinary Research, 2025)
